Results: US20210220328A1, “PYRROLE DERIVATIVES AS ACC INHIBITORS” (Almirall, S.A., priority 2017, published 2021)

System: immortalized human sebocyte cell line, SZ95
Assay: In vitro assay of inhibition of lipid synthesis
Type: cell-based
Conditions: 48 h, SZ95 sebocytes
Protocol: In Vitro Assay of Inhibition of Lipid Synthesis
To evaluate the inhibition of lipid synthesis, the immortalized human sebocyte cell line, SZ95 (stablished by Zouboulis, C. C. et al J Invest Dermatol 1999; 113:1011-20), was treated with arachidonic acid (AA) in presence or absence of compound. Lipids were detected by using a lipid sensing fluorophore.
Compounds were dissolved in dimethylsulfoxide (DMSO) 100%. Then the stocks were serial diluted 1/3 in DMSO 100%, and this battery of solutions were diluted 1/10 in culture medium, to minimize the percentage of the DMSO over cells.
10 k cells were plated in 384 well microtiter plates and incubated at 37° C. and 5% CO2 in DMEM/F12 supplemented with 10% FBS, 1.25 ng/ml of rhEGF and GA-1000 before of compound and stimulus addition. After 24 h, compounds dissolved in culture media were added over cells, diluting the solutions prepared 1/40 in the final volume of the assay. Then, cells and compounds were preincubated for 30 min at 37° C. and 5% CO2. After this prior incubation, the lipid synthesis was induced by 75 μM of AA final solution, preparing a solution 10× in culture media. Finally, SZ95 treated were incubated for 48 h at 37° C. and 5% CO2.
Neutral lipids were measured using AdipoRed™, purchased from LONZA. To do that, cells were washed with PBS and incubated with a solution of AdipoRed™ (final dilution 1/80 in PBS) for 30 min at room temperature. After the staining process, the fluorescence intensity (FI) was quantified using a fluorescence plate reader (excitation 485 nm; emission 535).
Activity of compounds were calculated as % of inhibition considering the maximal fluorescence for AA-stimulated cells and the minimum fluorescence for unstimulated cells as controls.

[1] = 75 μM arachidonic acid, AdipoRed, Table 2, finer classes for compounds with IC50 less than 250 nM
[2] = lipid synthesis induced by 75 μM arachidonic acid, AdipoRed fluorescence, Table 1

What does the source list for `CCCCCCCCCOc1c[nH]c(C(=O)O)c1Cl` [Example 77, 3-chloro-4-(nonyloxy)-1H-pyrrole-2-carboxylic acid]?
IC50 [1]: 50 to 100 nM; IC50 [2]: < 250 nM

With `CCCCCCCCCCCCOc1c[nH]c(C(=O)OCCN2C(=O)CCC2=O)c1` [Example 3, 2-(2,5-Dioxopyrrolidin-1-yl)ethyl 4-(dodecyloxy)-1H-pyrrole-2-carboxylate] as the compound, how does the IC50 [2] read?
The IC50 was 1000 to 5000 nM.

What does the source list for `CCCCCCCCCCCCCc1c[nH]c(C(=O)OCCCO)c1F` [Example 33, 3-Hydroxypropyl 3-fluoro-4-tridecyl-1H-pyrrole-2-carboxylate]?
IC50 [1]: 50 to 100 nM; IC50 [2]: < 250 nM

What does the source list for `CCCCCCCCCCC(C)(C)Cc1c[nH]c(C(=O)O)c1F` [Example 102, 4-(2,2-Dimethyldodecyl)-3-fluoro-1H-pyrrole-2-carboxylic acid]?
IC50 [1]: < 50 nM; IC50 [2]: < 250 nM

Which IC50 [1] does the source give for `CCCCCCCCCCCCCc1c[nH]c(C(=O)OCCN2C(=O)CCC2=O)c1F` [Example 28, 2-(2,5-Dioxopyrrolidin-1-yl)ethyl 3-fluoro-4-tridecyl-1H-pyrrole-2-carboxylate] here?
Its IC50 is 50 to 100 nM.

What about the IC50 [2] of the same compound?
Its IC50 is under 250 nM.

Which IC50 [2] does the source give for `CCCCCCCCCCCCCc1c[nH]c(C(=O)OC(C)(C)C)c1F` [Example 24, Tert-butyl 3-fluoro-4-tridecyl-1H-pyrrole-2-carboxylate] here?
The IC50 was 250 to 1000 nM.

Which IC50 [1] does the source give for `CCCCCCCCCCCCCc1c[nH]c(C(=O)OCCOCCOCC)c1F` [Example 43, 2-(2-Ethoxyethoxy)ethyl 3-fluoro-4-tridecyl-1H-pyrrole-2-carboxylate] here?
Its IC50 is under 50 nM.

What about the IC50 [2] of the same compound?
The IC50 was under 250 nM.

Which IC50 [1] does the source give for `CCCCCCCCCCOc1c[nH]c(C(=O)O)c1Cl` [Example 78, 3-Chloro-4-(decyloxy)-1H-pyrrole-2-carboxylic acid] here?
Its IC50 is under 50 nM.

And the IC50 [2]?
The IC50 was under 250 nM.

What does the source list for `CCCCCCCCCCCCCc1c[nH]c(C(=O)OC(C)OC(=O)OCCCO)c1F` (stereo not drawn) [Example 50, 1-(((3-Hydroxypropoxy)carbonyl)oxy)ethyl 3-fluoro-4-tridecyl-1H-pyrrole-2-carboxylate]?
IC50 [1]: < 50 nM; IC50 [2]: < 250 nM

What does the source list for `CCCCCCCCCCCCCc1c[nH]c(C(=O)OCCN2CCCC2=O)c1F` [Example 29, 2-(2-Oxopyrrolidin-1-yl)ethyl 3-fluoro-4-tridecyl-1H-pyrrole-2-carboxylate]?
IC50 [1]: 100 to 250 nM; IC50 [2]: < 250 nM

`CCCCCCCCCCCCCc1c[nH]c(C(=O)OC(C)OC(=O)OCCOCCOCC)c1Cl` (stereo not drawn) [Example 112, 4-Oxo-3,5,8,11-tetraoxatridecan-2-yl 3-chloro-4-tridecyl-1H-pyrrole-2-carboxylate] was tested. Which IC50 [1] did it give?
Its IC50 is 100 to 250 nM.

And the IC50 [2]?
The IC50 was under 250 nM.

How did the IC50 [2] turn out when `CCCCCCCCCCCCCCc1cc(Cl)c(C(=O)O)[nH]1` [Example 67, 3-Chloro-5-tetradecyl-1H-pyrrole-2-carboxylic acid] was run?
Its IC50 is 250 to 1000 nM.

With `CCCCCCCCCCCOc1c[nH]c(C(=O)OC(C)OC(=O)OC(C)C)c1F` (stereo not drawn) [Example 105, 1-((Isopropoxycarbonyl)oxy)ethyl 3-fluoro-4-(undecyloxy)-1H-pyrrole-2-carboxylate] as the compound, how does the IC50 [1] read?
The IC50 was under 50 nM.

What about the IC50 [2] of the same compound?
The IC50 was under 250 nM.

`CCCCCCCCCCCCc1c[nH]c(C(=O)OCCCCCCCCCO)c1Cl` [Example 59, 9-Hydroxynonyl 3-chloro-4-dodecyl-1H-pyrrole-2-carboxylate] was tested. Which IC50 [2] did it give?
The IC50 was 250 to 1000 nM.

For `CCCCCCCCCCCCOc1c[nH]c(C(=O)OCCN2CCCC2=O)c1` [Example 4, 2-(2-Oxopyrrolidin-1-yl)ethyl 4-(dodecyloxy)-1H-pyrrole-2-carboxylate], which IC50 [2] is on record?
The IC50 was 1000 to 5000 nM.

For `CCCCCCCCCCCCCc1c[nH]c(C(=O)OCCO)c1F` [Example 32, 2-Hydroxyethyl 3-fluoro-4-tridecyl-1H-pyrrole-2-carboxylate], which IC50 [2] is on record?
The IC50 was 250 to 1000 nM.

How did the IC50 [1] turn out when `CCCCCCCCCCCCCc1c[nH]c(C(=O)OC(C)OC(=O)OCCOCCOCC)c1F` (stereo not drawn) [Example 51, 4-Oxo-3,5,8,11-tetraoxatridecan-2-yl 3-fluoro-4-tridecyl-1H-pyrrole-2-carboxylate] was run?
The IC50 was under 50 nM.

What about the IC50 [2] of the same compound?
Its IC50 is under 250 nM.

Which results are given for `CCCCCCCCCCOc1c[nH]c(C(=O)O)c1F` [Example 71, 4-(Decyloxy)-3-fluoro-1H-pyrrole-2-carboxylic acid]?
IC50 [1]: < 50 nM; IC50 [2]: < 250 nM

What does the source list for `CCCCCCCCCCCCCc1c[nH]c(C(=O)O)c1Cl` [Example 61, 3-Chloro-4-tridecyl-1H-pyrrole-2-carboxylic acid]?
IC50 [1]: 100 to 250 nM; IC50 [2]: < 250 nM

What does the source list for `CCCCCCCCCCCCc1cc(F)c(C(=O)O)[nH]1` [Example 55, 5-Dodecyl-3-fluoro-1H-pyrrole-2-carboxylic acid]?
IC50 [1]: 50 to 100 nM; IC50 [2]: < 250 nM

What does the source list for `CCCCCCCCCCCCCc1c[nH]c(C(=O)OCc2ccccc2)c1F` [Example 26, Benzyl 3-fluoro-4-tridecyl-1H-pyrrole-2-carboxylate]?
IC50 [1]: 100 to 250 nM; IC50 [2]: < 250 nM

With `CCCCCCCCCCCCCc1c[nH]c(C(=O)OCC(=O)N(C)CC(=O)OCC)c1F` [Example 31, 2-((2-Ethoxy-2-oxoethyl)(methyl)amino)-2-oxoethyl 3-fluoro-4-tridecyl-1H-pyrrole-2-carboxylate] as the compound, how does the IC50 [1] read?
Its IC50 is under 50 nM.

What about the IC50 [2] of the same compound?
The IC50 was under 250 nM.

Which results are given for `CCCCCCCCCC(C)(C)CCc1c[nH]c(C(=O)O)c1F` [Example 95, 4-(3,3-Dimethyldodecyl)-3-fluoro-1H-pyrrole-2-carboxylic acid]?
IC50 [1]: < 50 nM; IC50 [2]: < 250 nM

What does the source list for `CCCCCCCCCCCCc1c[nH]c(C(=O)O)c1F` [Example 14, 4-Dodecyl-3-fluoro-1H-pyrrole-2-carboxylic acid]?
IC50 [1]: < 50 nM; IC50 [2]: < 250 nM

For `CCCCCCCCCCCCCc1c[nH]c(C(=O)OCC)c1F` [Example 20, Ethyl 3-fluoro-4-tridecyl-1H-pyrrole-2-carboxylate], which IC50 [2] is on record?
The IC50 was 1000 to 5000 nM.

With `CCCCCCCCCCCCCc1c[nH]c(C(=O)OC(C)C)c1F` [Example 23, Isopropyl 3-fluoro-4-tridecyl-1H-pyrrole-2-carboxylate] as the compound, how does the IC50 [2] read?
The IC50 was over 5000 nM.

How did the IC50 [1] turn out when `CCCCCCCCCCCCCc1c[nH]c(C(=O)OC(CO)CO)c1F` [Example 41, 1,3-Dihydroxypropan-2-yl 3-fluoro-4-tridecyl-1H-pyrrole-2-carboxylate] was run?
The IC50 was under 50 nM.

What about the IC50 [2] of the same compound?
The IC50 was under 250 nM.

With `CCCCCCCCCCCC(F)Cc1c[nH]c(C(=O)O)c1F` (stereo not drawn) [Example 93, 3-Fluoro-4-(2-fluorotridecyl)-1H-pyrrole-2-carboxylic acid] as the compound, how does the IC50 [1] read?
Its IC50 is under 50 nM.

And the IC50 [2]?
The IC50 was under 250 nM.

How did the IC50 [1] turn out when `CCCCCCCCCCCOc1c[nH]c(C(=O)O)c1F` [Example 72, 3-Fluoro-4-(undecyloxy)-1H-pyrrole-2-carboxylic acid] was run?
Its IC50 is under 50 nM.

And the IC50 [2]?
The IC50 was under 250 nM.

How did the IC50 [1] turn out when `CCCCCCCCCCCCCCCCc1c[nH]c(C(=O)O)c1F` [Example 132, 3-Fluoro-4-hexadecyl-1H-pyrrole-2-carboxylic acid] was run?
The IC50 was under 50 nM.

And the IC50 [2]?
The IC50 was under 250 nM.

`CCCCCCCCCCCCCCc1cc(F)c(C(=O)O)[nH]1` [Example 121, 3-Fluoro-5-tetradecyl-1H-pyrrole-2-carboxylic acid] was tested. Which IC50 [1] did it give?
Its IC50 is under 50 nM.

What about the IC50 [2] of the same compound?
Its IC50 is under 250 nM.

With `CCCCCCCCCCCCc1cc(Cl)c(C(=O)O)n1C` [Example 130, 3-Chloro-5-dodecyl-1-methyl-1H-pyrrole-2-carboxylic acid] as the compound, how does the IC50 [1] read?
The IC50 was 100 to 250 nM.

And the IC50 [2]?
Its IC50 is over 5000 nM.

Which IC50 [1] does the source give for `CCCCCCCCCCCCCc1cc(F)c(C(=O)O)[nH]1` [Example 120, 3-Fluoro-5-tridecyl-1H-pyrrole-2-carboxylic acid] here?
The IC50 was under 50 nM.

And the IC50 [2]?
The IC50 was under 250 nM.

What does the source list for `CCCCCCCCCCCCCCCCc1cc(F)c(C(=O)O)[nH]1` [Example 123, 3-Fluoro-5-hexadecyl-1H-pyrrole-2-carboxylic acid]?
IC50 [1]: 50 to 100 nM; IC50 [2]: < 250 nM

With `CCCCCCCCCCCCCCCCCc1cc(F)c(C(=O)O)[nH]1` [Example 124, 3-Fluoro-5-heptadecyl-1H-pyrrole-2-carboxylic acid] as the compound, how does the IC50 [2] read?
The IC50 was under 250 nM.

For `CCCCCCCCCCCCCc1c[nH]c(C(=O)OC(C)OC(=O)OCCCCCCCCC)c1F` (stereo not drawn) [Example 46, 1-(((Nonyloxy)carbonyl)oxy)ethyl 3-fluoro-4-tridecyl-1H-pyrrole-2-carboxylate], which IC50 [2] is on record?
Its IC50 is over 5000 nM.

How did the IC50 [1] turn out when `CCCCCCCCCCCCCCCc1cc(F)c(C(=O)O)[nH]1` [Example 122, 3-Fluoro-5-pentadecyl-1H-pyrrole-2-carboxylic acid] was run?
The IC50 was 50 to 100 nM.

What about the IC50 [2] of the same compound?
The IC50 was under 250 nM.

How did the IC50 [1] turn out when `CCCCCCCCCCc1c[nH]c(C(=O)O)c1F` [Example 12, 4-Decyl-3-fluoro-1H-pyrrole-2-carboxylic acid] was run?
Its IC50 is under 50 nM.

And the IC50 [2]?
The IC50 was under 250 nM.

`CCCCCCCCCCCCCc1c[nH]c(C(=O)OC(C)OC(=O)OC(C)C)c1F` (stereo not drawn) [Example 44, 1-((Isopropoxycarbonyl)oxy)ethyl 3-fluoro-4-tridecyl-1H-pyrrole-2-carboxylate] was tested. Which IC50 [1] did it give?
The IC50 was under 50 nM.

What about the IC50 [2] of the same compound?
Its IC50 is under 250 nM.

Which IC50 [2] does the source give for `CCCCCCCCCCCCCc1cn(C(C)C)c(C(=O)O)c1F` [Example 70, 3-Fluoro-1-isopropyl-4-tridecyl-1H-pyrrole-2-carboxylic acid] here?
The IC50 was 1000 to 5000 nM.

How did the IC50 [2] turn out when `CCCCCCCCCCCCOc1c[nH]c(C(=O)O)c1` [Example 1, 4-(Dodecyloxy)-1H-pyrrole-2-carboxylic acid] was run?
The IC50 was 250 to 1000 nM.

What does the source list for `CCCCCCCCCCCCC(F)(F)COc1c[nH]c(C(=O)O)c1F` [Example 97, 4-((2,2-Difluorotetradecyl)oxy)-3-fluoro-1H-pyrrole-2-carboxylic acid]?
IC50 [1]: 100 to 250 nM; IC50 [2]: < 250 nM
